The experiment deals with RAW264.7. Kind of experiment: Antiinflammatory activity in mouse RAW264.7 cells assessed as inhibition of LPS-induced NO production after 24 hrs by Griess assay. Particulars: RAW264.7, 24 h. The format is functional, cell-based. On the technique in general: Nitrite, measured by Griess reagent, commonly stands in for NO production.

On to `CC1(C)O[C@](C(=O)O)([C@H]2CC[C@]3(C)[C@@H]2CC[C@@H]2[C@@]4(C)CC[C@H](O[C@@H]5O[C@H](CO)[C@@H](O)[C@H](O)[C@H]5O)[C@](C)(CO)[C@@H]4CC[C@]23C)C[C@H](O)[C@@H]1O` [GENTIRIGEOSIDE A], for which the IC50 (commonly the concentration that gives 50% inhibition) is 6.6 µM.

In the case of `COc1ccc2c(c1)c(CC(=O)O)c(C)n2C(=O)c1ccc(Cl)cc1` [INDOMETHACIN], the IC50 stood at 1.25 µM.

Values taken from ChEMBL document CHEMBL3286241, “Dammarane-type triterpenoids from Gentianella azurea” (J Nat Prod, 2014).
